Source: patent US9695155B2, “Herbicidal substituted pyrimidinyloxy benzene compounds” (E. I. DU PONT DE NEMOURS AND COMPANY, priority 2013, dated 2017)

Tests used:
[1] = test system: barnyardgrass; test: Test A postemergence; format: in vivo, Echinochloa crus-galli
How it was run: (§1)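 Scoring: eye-based comparison with untreated controls, 0 for no effect through 100 for complete control, at about day 10. Treatments: directed soil spray preemergence; foliar spray postemergence on 2–10 cm plants at the one- to two-leaf stage. Medium: loam soil with sand.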

[2] = test system: pigweed; test: Test A preemergence; format: in vivo, Amaranthus retroflexus; settings: for Pigweed plant response rating (0 to 100 scale): 31 g ai/ha; for Plant response rating, Pigweed: 125 g ai/ha, 0 to 100 scale where 0 is no effect and 100 is complete control
How it was run: as §1

[3] = test system: giant foxtail; test: Test A postemergence; format: in vivo, Setaria faberii
How it was run: as §1

[4] = test system: giant foxtail; test: Test A preemergence; format: in vivo, Setaria faberii; settings: for Foxtail, Giant plant response rating (0 to 100 scale): 31 g ai/ha; for Plant response rating, Foxtail, Giant: 125 g ai/ha, 0 to 100 scale where 0 is no effect and 100 is complete control
How it was run: as §1

[5] = test system: sedge, umbrella; test: Test B flooded paddy test; format: in vivo, Cyperus difformis; settings: Flood, 250 g ai/ha; 0 to 100 scale where 0 is no effect and 100 is complete control
How it was run: (§2)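 Greenhouse flooded-pot test: compounds dosed into 3 cm standing water over 2-leaf plants, flood held constant. Rated visually after 13–15 days on 0–100 (complete control = 100); a dash marks no test result.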

[6] = test system: Italian ryegrass; test: Test A postemergence; format: in vivo, Lolium multiflorum; settings: for Plant response rating, Ryegrass, Italian: 31 g ai/ha, 0 to 100 scale, 0 no effect, 100 complete control; for Ryegrass, Italian plant response rating: 125 g ai/ha, 0 to 100 scale where 0 is no effect and 100 is complete control
How it was run: as §1

[7] = test system: ragweed; test: Test A preemergence; format: in vivo, Ambrosia elatior; settings: for Ragweed plant response rating (0 to 100 scale): 31 g ai/ha; for Plant response rating, Ragweed: 125 g ai/ha, 0 to 100 scale where 0 is no effect and 100 is complete control
How it was run: as §1

[8] = test system: pigweed; test: Test A postemergence; format: in vivo, Amaranthus retroflexus; settings: for Plant response rating, Pigweed: 31 g ai/ha, 0 to 100 scale, 0 no effect, 100 complete control; for Pigweed plant response rating: 125 g ai/ha, 0 to 100 scale where 0 is no effect and 100 is complete control
How it was run: as §1

[9] = test system: rice; test: Test B flooded paddy test; format: in vivo, Oryza sativa; settings: Flood, 250 g ai/ha; 0 to 100 scale where 0 is no effect and 100 is complete control
How it was run: as §2

[10] = test system: corn; test: Test A postemergence; format: in vivo, Zea mays
How it was run: as §1

[11] = test system: ragweed; test: Test A postemergence; format: in vivo, Ambrosia elatior; settings: for Plant response rating, Ragweed: 31 g ai/ha, 0 to 100 scale, 0 no effect, 100 complete control; for Ragweed plant response rating: 125 g ai/ha, 0 to 100 scale where 0 is no effect and 100 is complete control
How it was run: as §1

[12] = test system: wheat; test: Test A postemergence; format: in vivo, Triticum aestivum; settings: for Plant response rating, Wheat: 31 g ai/ha, 0 to 100 scale, 0 no effect, 100 complete control; for Wheat plant response rating: 125 g ai/ha, 0 to 100 scale where 0 is no effect and 100 is complete control
How it was run: as §1

[13] = test system: barnyardgrass; test: Test B flooded paddy test; format: in vivo, Echinochloa crus-galli; settings: Flood, 250 g ai/ha; 0 to 100 scale where 0 is no effect and 100 is complete control
How it was run: as §2

[14] = test system: blackgrass; test: Test A postemergence; format: in vivo, Alopecurus myosuroides
How it was run: as §1

[15] = test system: kochia; test: Test A preemergence; format: in vivo, Kochia scoparia; settings: for Kochia plant response rating (0 to 100 scale): 31 g ai/ha; for Plant response rating, Kochia: 125 g ai/ha, 0 to 100 scale where 0 is no effect and 100 is complete control
How it was run: as §1

[16] = test system: galium; test: Test A postemergence; format: in vivo, Galium aparine
How it was run: as §1

[17] = test system: kochia; test: Test A postemergence; format: in vivo, Kochia scoparia
How it was run: as §1

[18] = test system: Italian ryegrass; test: Test A preemergence; format: in vivo, Lolium multiflorum; settings: for Ryegrass, Italian plant response rating (0 to 100 scale): 31 g ai/ha; for Plant response rating, Ryegrass, Italian: 125 g ai/ha, 0 to 100 scale where 0 is no effect and 100 is complete control
How it was run: as §1

[19] = test system: Heteranthera limosa; test: Test B flooded paddy test; format: in vivo; settings: Flood, 250 g ai/ha; 0 to 100 scale where 0 is no effect and 100 is complete control
How it was run: as §2

[20] = test system: barnyardgrass; test: Test A preemergence; format: in vivo, Echinochloa crus-galli; settings: for Barnyardgrass plant response rating (0 to 100 scale): 31 g ai/ha; for Plant response rating, Barnyardgrass: 125 g ai/ha, 0 to 100 scale where 0 is no effect and 100 is complete control
How it was run: as §1

[21] = 31 g ai/ha, 0 to 100 scale, 0 no effect, 100 complete control
[22] = 125 g ai/ha, 0 to 100 scale where 0 is no effect and 100 is complete control

| Compound | Plant response rating, Barnyardgrass [1, 21] | Pigweed plant response rating (0 to 100 scale) [2] | Plant response rating, Pigweed [2] | Plant response rating, Foxtail, Giant [3, 21] | Foxtail, Giant plant response rating (0 to 100 scale) [4] | Plant response rating, Foxtail, Giant [4] | Plant response rating, Sedge, Umbrella [5] | Plant response rating, Ryegrass, Italian [6] | Ragweed plant response rating (0 to 100 scale) [7] | Plant response rating, Ragweed [7] | Plant response rating, Pigweed [8] | Plant response rating, Rice [9] | Plant response rating, Corn [10, 21] | Plant response rating, Ragweed [11] | Plant response rating, Wheat [12] | Plant response rating, Barnyardgrass [13] | Plant response rating, Blackgrass [14, 21] | Kochia plant response rating (0 to 100 scale) [15] | Plant response rating, Kochia [15] | Plant response rating, Galium [16, 21] | other results |
| --- | --- | --- | --- | --- | --- | --- | --- | --- | --- | --- | --- | --- | --- | --- | --- | --- | --- | --- | --- | --- | --- |
| Fc1cccc(Oc2ncc(Cl)cn2)c1-n1cc(C2CCCC2)nn1 [Compound 106] | 0 | 10 | 60 | 50 | 30 | 70 | 90 | 0 | 0 | 0 | 50 | 0 | 0 | 20 | 0 | 0 | 30 | 0 | 0 | 50 | Plant response rating, Barnyardgrass [1, 22]: 50; Plant response rating, Foxtail, Giant [3, 22]: 70; Plant response rating, Corn [10, 22]: 20; Plant response rating, Blackgrass [14, 22]: 50; Plant response rating, Galium [16, 22]: 70; Plant response rating, Kochia [17, 21]: 0; Plant response rating, Kochia [17, 22]: 50; Ryegrass, Italian plant response rating (0 to 100 scale) [18]: 0; Plant response rating, Ryegrass, Italian [18]: 0; Plant response rating, Ducksalad [19]: 75; Barnyardgrass plant response rating (0 to 100 scale) [20]: 0; Plant response rating, Barnyardgrass [20]: 40 |
| CC(C)Cc1cn(-c2c(F)cccc2Oc2ncc(Cl)cn2)nn1 [Compound 107] | 0 | 0 | 50 | 20 | 30 | 80 | 70 | 0 | 0 | 0 | 40 | 0 | 0 | 30 | 10 | 30 | 10 | 0 | 0 | 30 | Plant response rating, Barnyardgrass [1, 22]: 40; Plant response rating, Foxtail, Giant [3, 22]: 70; Plant response rating, Corn [10, 22]: 20; Plant response rating, Blackgrass [14, 22]: 50; Plant response rating, Galium [16, 22]: 80; Plant response rating, Kochia [17, 21]: 0; Plant response rating, Kochia [17, 22]: 20; Ryegrass, Italian plant response rating (0 to 100 scale) [18]: 0; Plant response rating, Ryegrass, Italian [18]: 0; Plant response rating, Ducksalad [19]: 40; Barnyardgrass plant response rating (0 to 100 scale) [20]: 10; Plant response rating, Barnyardgrass [20]: 60 |
| Fc1cnc(Oc2cccc(Cl)c2-n2cc(OCC(F)(F)F)cn2)nc1 [Compound 109] | 10 | 100 | 100 | 10 | 70 | 90 | 85 | 0 | 0 | 10 | 70 | 0 | 10 | 10 | 0 | 0 | 20 | 20 | 60 | 50 | Plant response rating, Barnyardgrass [1, 22]: 60; Plant response rating, Foxtail, Giant [3, 22]: 70; Plant response rating, Corn [10, 22]: 40; Plant response rating, Blackgrass [14, 22]: 70; Plant response rating, Galium [16, 22]: 90; Plant response rating, Kochia [17, 21]: 40; Plant response rating, Kochia [17, 22]: 60; Ryegrass, Italian plant response rating (0 to 100 scale) [18]: 0; Plant response rating, Ryegrass, Italian [18]: 0; Plant response rating, Ducksalad [19]: 80; Barnyardgrass plant response rating (0 to 100 scale) [20]: 20; Plant response rating, Barnyardgrass [20]: 60 |
| FCc1cccc(Oc2ncc(Cl)cn2)c1-n1cc(C(F)(F)F)cn1 [Compound 119] | 40 | 100 | 100 | 30 | 90 | 100 | 95 | 30 | 0 | 60 | 70 | 25 | 10 | 30 | 10 | 40 | 40 | 50 | 100 | 70 | Plant response rating, Barnyardgrass [1, 22]: 70; Plant response rating, Foxtail, Giant [3, 22]: 80; Plant response rating, Corn [10, 22]: 50; Plant response rating, Blackgrass [14, 22]: 70; Plant response rating, Galium [16, 22]: 100; Plant response rating, Kochia [17, 21]: 70; Plant response rating, Kochia [17, 22]: 90; Ryegrass, Italian plant response rating (0 to 100 scale) [18]: 10; Plant response rating, Ryegrass, Italian [18]: 80; Plant response rating, Ducksalad [19]: 95; Barnyardgrass plant response rating (0 to 100 scale) [20]: 30; Plant response rating, Barnyardgrass [20]: 90 |
| COc1cnn(-c2c(F)cccc2Oc2ncc(Cl)cn2)c1 [Compound 121] | 0 | 60 | 90 | 0 | 10 | 50 | 0 | 0 | 0 | 10 | 10 | 0 | 0 | 10 | 0 | 20 | 10 | 0 | 60 | 10 | Barnyardgrass plant response rating [1, 22]: 20; Foxtail, Giant plant response rating [3, 22]: 30; Ryegrass, Italian plant response rating [6]: 0; Pigweed plant response rating [8]: 40; Corn plant response rating [10, 22]: 10; Ragweed plant response rating [11]: 40; Wheat plant response rating [12]: 0; Blackgrass plant response rating [14, 22]: 30; Galium plant response rating [16, 22]: 30; Plant response rating, Kochia [17, 21]: 20; Kochia plant response rating [17, 22]: 40; Ryegrass, Italian plant response rating (0 to 100 scale) [18]: 0; Plant response rating, Ryegrass, Italian [18]: 0; Plant response rating, Ducksalad [19]: 45; Barnyardgrass plant response rating (0 to 100 scale) [20]: 0; Plant response rating, Barnyardgrass [20]: 30 |
| FCc1cccc(Oc2ncc(Br)cn2)c1-n1cc(Br)cn1 [Compound 125] | 0 | 70 | 100 | 0 | 20 | 100 | 70 | 0 | 0 | 10 | 30 | 0 | 20 | 0 | 0 | 0 | 40 | 20 | 50 | 20 | Barnyardgrass plant response rating [1, 22]: 90; Foxtail, Giant plant response rating [3, 22]: 80; Ryegrass, Italian plant response rating [6]: 10; Pigweed plant response rating [8]: 70; Corn plant response rating [10, 22]: 50; Ragweed plant response rating [11]: 10; Wheat plant response rating [12]: 20; Blackgrass plant response rating [14, 22]: 80; Galium plant response rating [16, 22]: 90; Plant response rating, Kochia [17, 21]: 40; Kochia plant response rating [17, 22]: 40; Ryegrass, Italian plant response rating (0 to 100 scale) [18]: 0; Plant response rating, Ryegrass, Italian [18]: 20; Plant response rating, Ducksalad [19]: 70; Barnyardgrass plant response rating (0 to 100 scale) [20]: 10; Plant response rating, Barnyardgrass [20]: 80 |
